“Also recorded” adds a separate entry of the source. Where two headings read alike, the source gives them in different places.
Experiments:
estrogen receptor [1] = test system: estrogen receptor; design: method as in ToxCast database; conditions: ref ToxCast database; cited from earlier work
thyroid pathway [2] = test system: thyroid pathway; design: method as in ToxCast database; conditions: ref ToxCast database; cited from earlier work
COX1(h) = COX1(h) (Homo sapiens, UniProt P23219); experiment: Pharmacology profiling: COX1; format: biochemical
in vitro = conditions: human, plasma
estrogen receptor (ER) = conditions: ref ToxCast, cited from earlier work
Human MRP4 = Human MRP4 (Homo sapiens, UniProt O15439); conditions: not told
estrogen receptor [3] = test system: estrogen receptor; design: method as in ToxCast database; conditions: ref ToxCast database; cited from earlier work; remark: listed apart in the source
TSHR = test system: TSHR; design: method as in ToxCast database; conditions: ref ToxCast database; cited from earlier work
estrogen receptor [4] = test system: estrogen receptor; design: method as in ToxCast database; conditions: ref ToxCast database; cited from earlier work; remark: listed apart in the source
thyroid pathway [5] = test system: thyroid pathway; design: method as in ToxCast database; conditions: ref ToxCast database; cited from earlier work; remark: listed apart in the source
androgen receptor (AR) = test system: androgen receptor (AR); design: method as in ToxCast; conditions: ref ToxCast, cited from earlier work
Human OAT3 = Human OAT3 (Homo sapiens, UniProt Q8TCC7)
androgen receptor [6] = test system: androgen receptor; design: method as in ToxCast database; conditions: ref ToxCast database; cited from earlier work
Human MDR1 = Human MDR1 (Homo sapiens, UniProt P08183); conditions: not told
COX2(h) = biological target: T1, COX2(h) (Homo sapiens, UniProt P35354); experiment: Pharmacology profiling: COX2; format: biochemical
T1 sequence (P35354 18-604): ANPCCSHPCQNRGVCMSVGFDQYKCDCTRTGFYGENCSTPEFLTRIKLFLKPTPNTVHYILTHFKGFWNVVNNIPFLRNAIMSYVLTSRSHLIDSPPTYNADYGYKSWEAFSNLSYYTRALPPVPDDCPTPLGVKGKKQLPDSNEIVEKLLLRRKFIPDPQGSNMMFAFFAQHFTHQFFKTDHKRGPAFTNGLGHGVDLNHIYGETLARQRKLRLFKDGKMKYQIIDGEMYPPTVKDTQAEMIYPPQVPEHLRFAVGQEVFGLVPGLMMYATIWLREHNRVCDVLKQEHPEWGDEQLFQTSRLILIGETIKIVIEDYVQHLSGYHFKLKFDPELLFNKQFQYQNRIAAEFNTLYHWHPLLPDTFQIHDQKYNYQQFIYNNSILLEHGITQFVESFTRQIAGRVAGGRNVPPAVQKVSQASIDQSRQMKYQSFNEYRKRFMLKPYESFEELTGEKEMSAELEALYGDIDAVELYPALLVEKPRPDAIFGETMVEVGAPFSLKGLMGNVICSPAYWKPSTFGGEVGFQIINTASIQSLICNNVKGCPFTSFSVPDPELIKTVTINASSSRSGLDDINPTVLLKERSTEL

Aromatase = test system: Aromatase; design: method as in ToxCast database; conditions: ref ToxCast database; cited from earlier work
acetylcholinesterase (h) = acetylcholinesterase (h) (Homo sapiens, UniProt P22303); experiment: Pharmacology profiling: acetylcholinesterase; format: biochemical
HepG2 cells = conditions: human, 24 h
androgen receptor [7] = test system: androgen receptor; design: method as in ToxCast database; conditions: ref ToxCast database; cited from earlier work; remark: listed apart in the source
hPTCs = conditions: human, 72 h
[8] = remark: listed apart in the source
Protocol: Figure 8 provides an overview of the tiered workflow and the related in silico and in vitro NAMs used to calculate the MoIE. […] Since this assessment is conducted using plasma concentrations rather than external doses, the comparison is an MoIE.
In this assessment, the total plasma concentrations were used, rather than unbound concentrations, because they are compared with nominal doses used in the in vitro assays (biokinetics in the toxicogenomics incubations were not measured).

[9] = test system: panel of 83 pharmacological targets
Source text: The set of targets was extended to broaden the biological coverage.
Results showing an inhibition or stimulation higher than 50% are considered to represent significant effects (i.e. a “hit”).

[10] = test system: Thyroid (TR and TPO only); design: method as in ToxCast; conditions: ref ToxCast, cited from earlier work
THRa = test system: THRa; design: method as in ToxCast database; conditions: ref ToxCast database; cited from earlier work
Human MRP2 = Human MRP2 (Homo sapiens, UniProt Q92887); conditions: not told
[11] = Deterministic PBPK model of plasma concentrations; design: species or system human; conditions: deterministic PBPK and Fup
androgen receptor [12] = test system: androgen receptor; design: method as in ToxCast database; conditions: ref ToxCast database; cited from earlier work; remark: listed apart in the source

Chain of COX1(h) (P23219 24-599): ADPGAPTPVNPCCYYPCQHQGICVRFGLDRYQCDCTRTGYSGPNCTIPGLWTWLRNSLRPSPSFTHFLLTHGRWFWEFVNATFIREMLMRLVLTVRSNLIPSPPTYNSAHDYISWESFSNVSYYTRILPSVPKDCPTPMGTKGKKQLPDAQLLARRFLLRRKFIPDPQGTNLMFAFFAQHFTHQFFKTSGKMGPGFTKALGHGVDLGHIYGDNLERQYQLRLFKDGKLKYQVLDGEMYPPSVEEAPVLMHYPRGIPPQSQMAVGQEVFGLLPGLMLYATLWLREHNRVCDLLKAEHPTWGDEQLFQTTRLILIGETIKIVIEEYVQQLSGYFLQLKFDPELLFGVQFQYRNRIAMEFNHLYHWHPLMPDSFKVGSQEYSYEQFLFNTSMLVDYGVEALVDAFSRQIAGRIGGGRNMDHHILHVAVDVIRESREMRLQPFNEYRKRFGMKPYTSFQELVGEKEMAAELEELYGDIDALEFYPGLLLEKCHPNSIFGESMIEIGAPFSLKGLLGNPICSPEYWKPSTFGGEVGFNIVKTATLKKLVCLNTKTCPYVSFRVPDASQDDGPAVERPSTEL
Chain of acetylcholinesterase (h) (P22303 32-614): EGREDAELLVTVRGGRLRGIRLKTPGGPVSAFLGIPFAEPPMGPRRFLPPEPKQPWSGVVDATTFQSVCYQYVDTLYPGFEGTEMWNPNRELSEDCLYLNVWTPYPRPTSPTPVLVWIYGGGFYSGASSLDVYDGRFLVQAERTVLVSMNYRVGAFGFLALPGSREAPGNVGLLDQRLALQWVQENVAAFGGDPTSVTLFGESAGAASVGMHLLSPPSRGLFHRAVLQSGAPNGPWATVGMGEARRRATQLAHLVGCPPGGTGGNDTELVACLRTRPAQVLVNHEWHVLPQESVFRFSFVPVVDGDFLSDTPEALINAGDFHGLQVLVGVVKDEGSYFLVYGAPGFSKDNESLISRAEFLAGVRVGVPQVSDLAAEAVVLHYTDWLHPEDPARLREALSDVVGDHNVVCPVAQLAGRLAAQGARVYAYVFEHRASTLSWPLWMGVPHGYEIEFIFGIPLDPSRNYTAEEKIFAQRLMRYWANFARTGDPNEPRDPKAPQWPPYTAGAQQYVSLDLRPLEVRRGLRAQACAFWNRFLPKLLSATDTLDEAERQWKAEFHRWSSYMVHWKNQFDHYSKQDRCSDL
Chain of Human MDR1 (P08183 whole entry): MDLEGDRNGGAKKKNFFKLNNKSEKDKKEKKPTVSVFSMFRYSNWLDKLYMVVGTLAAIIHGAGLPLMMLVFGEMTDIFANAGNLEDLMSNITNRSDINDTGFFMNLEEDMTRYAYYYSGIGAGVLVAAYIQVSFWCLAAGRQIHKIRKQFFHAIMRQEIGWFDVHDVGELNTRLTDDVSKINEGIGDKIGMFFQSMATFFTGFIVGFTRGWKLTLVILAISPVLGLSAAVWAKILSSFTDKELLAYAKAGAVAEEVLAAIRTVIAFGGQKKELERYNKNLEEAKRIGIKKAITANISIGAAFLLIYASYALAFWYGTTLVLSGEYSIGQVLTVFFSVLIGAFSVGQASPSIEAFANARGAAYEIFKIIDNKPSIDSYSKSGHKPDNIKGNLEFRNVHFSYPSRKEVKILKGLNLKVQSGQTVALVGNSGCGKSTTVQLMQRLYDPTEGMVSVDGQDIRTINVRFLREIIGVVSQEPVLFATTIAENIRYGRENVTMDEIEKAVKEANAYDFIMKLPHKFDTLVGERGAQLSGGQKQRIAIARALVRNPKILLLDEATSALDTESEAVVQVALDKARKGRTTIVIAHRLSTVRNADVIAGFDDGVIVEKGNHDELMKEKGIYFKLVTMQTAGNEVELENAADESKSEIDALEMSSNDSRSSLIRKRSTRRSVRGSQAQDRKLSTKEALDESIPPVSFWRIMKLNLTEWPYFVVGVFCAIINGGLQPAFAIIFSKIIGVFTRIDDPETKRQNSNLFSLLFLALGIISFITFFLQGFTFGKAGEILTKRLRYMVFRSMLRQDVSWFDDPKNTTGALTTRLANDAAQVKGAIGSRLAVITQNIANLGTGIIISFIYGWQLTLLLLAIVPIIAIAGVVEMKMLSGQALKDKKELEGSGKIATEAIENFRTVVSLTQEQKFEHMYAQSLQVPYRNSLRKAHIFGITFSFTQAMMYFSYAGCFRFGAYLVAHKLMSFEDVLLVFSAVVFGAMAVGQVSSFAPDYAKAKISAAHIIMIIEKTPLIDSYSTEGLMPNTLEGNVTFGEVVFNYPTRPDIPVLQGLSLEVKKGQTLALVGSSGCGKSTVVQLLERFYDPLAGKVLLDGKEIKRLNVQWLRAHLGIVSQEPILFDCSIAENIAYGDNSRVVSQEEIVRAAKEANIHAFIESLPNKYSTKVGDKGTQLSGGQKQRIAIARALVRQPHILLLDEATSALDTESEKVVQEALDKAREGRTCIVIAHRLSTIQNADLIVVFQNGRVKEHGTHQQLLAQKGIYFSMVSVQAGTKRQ
Chain of Human OAT3 (Q8TCC7 whole entry): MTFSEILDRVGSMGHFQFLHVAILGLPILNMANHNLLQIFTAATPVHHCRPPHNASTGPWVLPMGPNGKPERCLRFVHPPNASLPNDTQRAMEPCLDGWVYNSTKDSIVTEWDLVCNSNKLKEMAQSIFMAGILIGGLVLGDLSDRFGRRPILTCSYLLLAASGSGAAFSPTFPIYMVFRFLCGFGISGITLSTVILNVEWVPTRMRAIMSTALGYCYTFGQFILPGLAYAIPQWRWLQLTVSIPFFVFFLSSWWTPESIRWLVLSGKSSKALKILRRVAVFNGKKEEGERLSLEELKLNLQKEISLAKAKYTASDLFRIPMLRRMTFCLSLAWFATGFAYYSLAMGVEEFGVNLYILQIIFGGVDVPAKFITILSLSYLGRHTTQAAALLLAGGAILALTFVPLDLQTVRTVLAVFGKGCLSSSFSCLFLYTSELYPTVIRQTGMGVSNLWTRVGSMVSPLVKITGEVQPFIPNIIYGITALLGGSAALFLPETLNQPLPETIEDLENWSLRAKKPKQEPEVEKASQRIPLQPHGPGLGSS
Chain of Human MRP4 (O15439 whole entry): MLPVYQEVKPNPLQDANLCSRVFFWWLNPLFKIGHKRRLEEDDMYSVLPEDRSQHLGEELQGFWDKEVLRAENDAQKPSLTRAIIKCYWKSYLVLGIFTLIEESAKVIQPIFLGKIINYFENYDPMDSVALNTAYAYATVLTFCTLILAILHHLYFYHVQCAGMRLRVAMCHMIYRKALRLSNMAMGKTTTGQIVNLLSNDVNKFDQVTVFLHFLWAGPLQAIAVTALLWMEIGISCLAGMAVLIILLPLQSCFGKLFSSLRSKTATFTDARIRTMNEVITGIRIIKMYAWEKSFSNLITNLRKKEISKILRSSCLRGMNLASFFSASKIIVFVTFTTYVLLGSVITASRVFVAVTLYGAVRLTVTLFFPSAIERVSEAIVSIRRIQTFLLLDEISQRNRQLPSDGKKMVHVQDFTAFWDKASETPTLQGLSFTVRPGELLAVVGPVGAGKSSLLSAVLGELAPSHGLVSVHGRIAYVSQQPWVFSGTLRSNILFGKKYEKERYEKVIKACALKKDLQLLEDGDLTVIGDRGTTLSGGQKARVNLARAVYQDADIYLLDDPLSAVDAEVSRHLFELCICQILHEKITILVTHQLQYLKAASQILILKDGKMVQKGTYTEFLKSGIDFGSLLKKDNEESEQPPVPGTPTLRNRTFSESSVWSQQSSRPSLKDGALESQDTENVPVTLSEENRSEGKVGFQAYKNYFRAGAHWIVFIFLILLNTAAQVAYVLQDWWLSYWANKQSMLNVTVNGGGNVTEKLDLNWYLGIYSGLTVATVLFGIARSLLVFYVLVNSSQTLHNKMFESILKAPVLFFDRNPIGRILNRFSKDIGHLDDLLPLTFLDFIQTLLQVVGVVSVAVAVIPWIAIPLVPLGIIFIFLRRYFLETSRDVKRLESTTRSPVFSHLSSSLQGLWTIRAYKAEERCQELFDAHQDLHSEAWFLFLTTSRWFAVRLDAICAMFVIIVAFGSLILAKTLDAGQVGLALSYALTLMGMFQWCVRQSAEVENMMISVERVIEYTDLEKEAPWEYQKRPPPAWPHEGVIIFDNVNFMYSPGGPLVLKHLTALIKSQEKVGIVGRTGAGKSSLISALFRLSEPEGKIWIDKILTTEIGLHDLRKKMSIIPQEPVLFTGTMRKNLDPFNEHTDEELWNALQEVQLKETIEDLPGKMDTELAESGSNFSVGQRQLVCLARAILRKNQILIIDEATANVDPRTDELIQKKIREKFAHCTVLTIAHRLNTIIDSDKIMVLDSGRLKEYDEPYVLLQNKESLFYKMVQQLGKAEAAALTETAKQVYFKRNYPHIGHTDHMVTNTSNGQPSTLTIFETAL

O=C(O)c1ccccc1O [SA, salicylic acid]
Estrogen pathway Reporter protein Agonist: Call (estrogen receptor [1]): Negative
Thyroid pathway Reporter protein Agonist: Call (thyroid pathway [2]): Negative
Inhibition of COX1, screening (COX1(h); 10 µM): did not inhibit
Inhibition of COX1, follow-up (COX1(h); up to 10 mM): did not inhibit; also recorded: no effect
fraction unbound (in vitro): 0.029 to 0.18
Fraction unbound in the plasma (Fup): 3 to ∼20
Estrogen: Experimental Data (call) (estrogen receptor (ER); Tier 0): Negative
Estrogen: assays active / assays (estrogen receptor (ER)): 0/18 active
Substrate of MRP4 (efflux) (Human MRP4): not a substrate
Estrogen pathway mRNA induction: Call (estrogen receptor [3]): Negative
Thyroid pathway Regulation of transcription factor activity (TSHR): Call (TSHR): Negative
Estrogen pathway Reporter protein Antagonist: Call (estrogen receptor [4]): Negative
Thyroid pathway Reporter protein Antagonist: Call (thyroid pathway [5]): Negative
Androgen: Experimental Data (call) (androgen receptor (AR); Tier 0): Negative
Androgen: assays active / assays (androgen receptor (AR)): 1/15 active (noise)
Substrate of OAT3 (uptake) (Human OAT3): borderline substrate
Androgen pathway Reporter protein Antagonist: Call (androgen receptor [6]): Negative
Substrate of MDR1 (efflux) (Human MDR1): not a substrate
IC50 (COX2(h)): > 10 mM
Inhibition of COX2, screening (COX2(h); 10 µM): did not inhibit
inhibition at 10000 µM (COX2(h); 10 mM): 29%
Steroidogenesis Aromatase: Call (Aromatase): Negative
inhibition at 10 µM (acetylcholinesterase (h); 10 µM SA, two technical replicates): 25.4%
Inhibition of acetylcholinesterase, follow-up (acetylcholinesterase (h); 10 μM to 1 mM SA): ≤ 5%
PoD (BMDL, lowest pathway) (HepG2 cells): 213 μM (method 1) µM
Androgen pathway receptor binding: Call (androgen receptor [7]): Negative
PoD (hPTCs): >300 µM
MoIE ([8]; PoD method 1 (213 µM) / CI95 Cmax 0.630 µM): 338
MoIE ([8]; PoD method 1 (213 µM) / mean Cmax 0.273 µM): 780
MoIE ([8]; PoD method 2 ([…]) / CI95 Cmax 0.630 µM): 16
MoIE ([8]; PoD method 2 ([…]) / mean Cmax 0.273 µM): 38
PoD [9]: ≥10,000 µM
Effect on panel targets ([9]; up to millimolar concentrations): none of the targets tested were significantly impacted
Thyroid (TR and TPO only): Experimental Data (call) ([10]; Tier 0): Negative
Thyroid (TR and TPO only): assays active / assays [10]: 0/11 active
Thyroid pathway receptor binding (THRa): Call (THRa): Negative
Substrate of MRP2 (efflux) (Human MRP2): not a substrate
Exposure of unbound SA compared to unbound BSal [11]: ≥ 5 fold
Androgen pathway Reporter protein Agonist: Call (androgen receptor [12]): Negative

From article PMC10955127 (Frontiers in Pharmacology, 2024)
